This test deals with T1, APJ Receptor (Homo sapiens, UniProt P35414).
T1 sequence (P35414 1-380): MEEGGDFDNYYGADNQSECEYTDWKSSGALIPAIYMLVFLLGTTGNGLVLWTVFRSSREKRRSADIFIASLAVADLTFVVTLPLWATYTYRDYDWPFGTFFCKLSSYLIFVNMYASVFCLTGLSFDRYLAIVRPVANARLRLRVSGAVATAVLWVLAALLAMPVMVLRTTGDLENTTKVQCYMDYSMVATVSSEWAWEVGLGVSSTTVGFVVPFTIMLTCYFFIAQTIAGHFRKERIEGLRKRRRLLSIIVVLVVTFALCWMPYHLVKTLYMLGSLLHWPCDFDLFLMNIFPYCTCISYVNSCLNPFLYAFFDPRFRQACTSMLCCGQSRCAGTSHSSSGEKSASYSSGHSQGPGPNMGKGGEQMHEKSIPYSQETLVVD
The experiment in a line: APJ cAMP assay (DiscoverX enzyme fragment complementation; inhibition of forskolin-stimulated cAMP). It is filed as cell-based. The settings on record: CHO-K1 cell line stably expressing the APJ Receptor; EC80 forskolin; 30 minutes at 37° C.; read-out: Potency Range (APJ cAMP EC50). The essentials: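 CHO-K1 cells stably expressing APJ incubated with compound plus EC80 forskolin for 30 min at 37° C. cAMP detected by β-galactosidase enzyme fragment complementation with chemiluminescent read-out; % activity calculated relative to vehicle and maximal controls.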

Drawing on patent US11944622B2 (Annapurna Bio, Inc., priority 2018, dated 2024), this text covers EC50 for 30 molecules.

The EC50 is the midpoint of the concentration-response curve. In the case of `CCOc1cccc(-c2nc3ncc(NS(=O)(=O)CCC(C)(C)O)nc3n2-c2c(OC)cccc2OC)n1` [Example 60, N-(1-(2,6-dimethoxyphenyl)-2-(6-ethoxypyridin-2-yl)-1H-imidazo[4,5-b]pyrazin-6-yl)-3-hydroxy-3-methylbutane-1-sulfonamide], the EC50 was in the range of 1 to 100 nM.
The figure for `CCOc1cccc(-c2nc3nc(Cl)c(NS(=O)(=O)Cc4ccc(C)cn4)nc3n2-c2c(OC)cccc2OC)n1` [Example 114, N-(5-Chloro-1-(2,6-dimethoxyphenyl)-2-(6-ethoxypyridin-2-yl)-1H-imidazo[4,5-b]pyrazin-6-yl)-1-(5-methylpyridin-2-yl)methanesulfonamide] is 1 to 100 nM.
The same measure for `CCOc1cccc(-c2nc3nc(NS(=O)(=O)C4CC4)cnc3n2-c2c(OC)cccc2OC)n1` [Example 92, N-(1-(2,6-Dimethoxyphenyl)-2-(6-ethoxypyridin-2-yl)-1H-imidazo[4,5-b]pyrazin-5-yl)cyclopropanesulfonamide]: 1 to 100 nM.
The same measure for `COc1cccc(OC)c1-n1c(-c2cccc(OCC(F)(F)F)n2)nc2ncc(NS(C)(=O)=O)nc21` [Example 55, N-(1-(2,6-dimethoxyphenyl)-2-(6-(trifluoroethoxy)pyridin-2-yl)-1H-imidazo[4,5-b]pyrazin-6-yl)methanesulfonamide]: 1 to 100 nM; for `CCCOc1nc2ncc(NS(=O)(=O)c3ccccc3)nc2n1-c1c(OC)cccc1OC` [Example 134, N-(1-(2,6-Dimethoxyphenyl)-2-propoxy-1H-imidazo[4,5-b]pyrazin-6-yl) benzenesulfonamide]: 100 to 10000 nM.
Take `CCOc1cccc(-c2nc3nc(Cl)c(NS(=O)(=O)N(C)C4CC4)nc3n2-c2c(OC)cccc2OC)n1` [Example 112, N-(5-Chloro-1-(2,6-dimethoxyphenyl)-2-(6-ethoxypyridin-2-yl)-1H-imidazo[4,5-b]pyrazin-6-yl)-N′-methyl-N′-cyclopropylsulfamide]: the concentration for a half-maximal effect (EC50) was below 1 nM.
The same measure for `CCOc1cccc(-c2nc3nc(Cl)c(NS(=O)(=O)c4ccccn4)nc3n2-c2c(OC)cccc2OC)n1` [Example 102, N-(5-Chloro-1-(2,6-dimethoxyphenyl)-2-(6-ethoxypyridin-2-yl)-1H-imidazo[4,5-b]pyrazin-6-yl)pyridine-2-sulfonamide]: 1 to 100 nM.
The same measure for `CCOc1cccc(-c2nc3nnc(NS(=O)(=O)Cc4ncccn4)cc3n2-c2c(OC)cccc2OC)n1` [Example 127, N-(5-(2,6-Dimethoxyphenyl)-6-(6-ethoxypyridin-2-yl)-5H-imidazo[4,5-c]pyridazin-3-yl)-1-(pyrimidin-2-yl)methanesulfonamide]: below 1 nM.
`CCOc1cccc(-c2nc3nc(Cl)c(NS(=O)(=O)c4ccc(C)cn4)nc3n2-c2c(OC)cccc2OC)n1` [Example 101, N-(5-Chloro-1-(2,6-dimethoxyphenyl)-2-(6-ethoxypyridin-2-yl)-1H-imidazo[4,5-b]pyrazin-6-yl)-5-methylpyridine-2-sulfonamide]: the EC50 was below 1 nM.
The figure for `CCOc1cccc(-c2nc3ncc(N(C)C)nc3n2-c2c(OC)cccc2OC)n1` [Example 12, 1-(2,6-dimethoxyphenyl)-2-(6-ethoxypyridin-2-yl)-N,N-dimethyl-1H-imidazo[4,5-b]pyrazin-6-amine] is 100 to 10000 nM; for `CCOc1cccc(-c2nc3ncc(NS(C)(=O)=O)nc3n2-c2c(OC)cccc2C(F)(F)F)n1` [Example 48, N-(2-(6-ethoxypyridin-2-yl)-1-(2-methoxy-6-(trifluoromethyl)phenyl)-1H-imidazo[4,5-b]pyrazin-6-yl)methanesulfonamide] it is 1 to 100 nM; for `CCOc1cccc(-c2nc3nc(Cl)c(NS(=O)(=O)c4ccc(CF)cc4)nc3n2-c2c(OC)cccc2OC)n1` [Example 103, N-(5-Chloro-1-(2,6-dimethoxyphenyl)-2-(6-ethoxypyridin-2-yl)-1H-imidazo[4,5-b]pyrazin-6-yl)-4-(fluoromethyl)benzenesulfonamide] it is below 1 nM.
The figure for `COc1cccc(OC)c1-n1c(-c2cncc(C)c2)nc2ncc(NS(=O)(=O)C3CC3)nc21` [Example 133, N-(1-(2,6-dimethoxyphenyl)-2-(5-methylpyridin-3-yl)-1H-imidazo[4,5-b]pyrazin-6-yl)cyclopropanesulfonamide] is 100 to 10000 nM; for `CCOc1cccc(-c2nc3ncc(NS(=O)(=O)c4ccccc4)nc3n2-c2c(OC)cccc2OC)n1` [Example 5, N-(1-(2,6-dimethoxyphenyl)-2-(6-ethoxypyridin-2-yl)-1H-imidazo[4,5-b]pyrazin-6-yl)benzenesulfonamide] it is below 1 nM.
The figure for `CCOc1cccc(-c2nc3nc(NS(=O)(=O)CC4CC4)cnc3n2-c2c(OC)cccc2OC)n1` [Example 45, 1-cyclopropyl-N-(1-(2,6-dimethoxyphenyl)-2-(6-ethoxypyridin-2-yl)-1H-imidazo[4,5-b]pyrazin-5-yl)methanesulfonamide] is below 1 nM; for `CCOc1cccc(-c2nc3nc(N)cnc3n2-c2c(OC)cccc2OC)n1` [Example 16, 1-(2,6-dimethoxyphenyl)-2-(6-ethoxypyridin-2-yl)-1H-imidazo[4,5-b]pyrazin-5-amine] it is 1 to 100 nM; for `CCOc1cccc(-c2nc3ncc(NCC4CC4)nc3n2-c2c(OC)cccc2OC)n1` [Example 67, N-(cyclopropylmethyl)-1-(2,6-dimethoxyphenyl)-2-(6-ethoxypyridin-2-yl)-1H-imidazo[4,5-b]pyrazin-6-amine] it is 1 to 100 nM.
Regarding `CCOc1cccc(-c2nc3ncc(NS(=O)(=O)Cc4cnccn4)nc3n2-c2c(OC)cccc2OC)n1` [Example 69, N-(1-(2,6-dimethoxyphenyl)-2-(6-ethoxypyridin-2-yl)-1H-imidazo[4,5-b]pyrazin-6-yl)-1-(pyrazin-2-yl)methanesulfonamide], the EC50 is 1 to 100 nM.
As for `CCOc1cccc(-c2nc3ncc(NS(=O)(=O)CC4CCNCC4)nc3n2-c2c(OC)cccc2OC)n1` [Example 38, N-(1-(2,6-dimethoxyphenyl)-2-(6-ethoxypyridin-2-yl)-1H-imidazo[4,5-b]pyrazin-6-yl)-1-(piperidin-4-yl)methanesulfonamide], the EC50 was in the range of 1 to 100 nM.
The same measure for `CCOc1cccc(-c2nc3ncc(NS(C)(=O)=O)nc3n2-c2c(OC)ccnc2OC)n1` (atropisomer, axis not shown) [Example 85, N-(1-(2,4-Dimethoxypyridin-3-yl)-2-(6-ethoxypyridin-2-yl)-1H-imidazo[4,5-b]pyrazin-6-yl)methanesulfonamide]: 100 to 10000 nM; for `CCOc1cccc(-c2nc3nnc(NS(C)(=O)=O)c(C)c3n2-c2c(OC)cccc2OC)n1` [Example 139, N-(7-(2,6-Dimethoxyphenyl)-8-(6-ethoxypyridin-2-yl)-6-methyl-7H-imidazo[4,5-c]pyridazinyl)methanesulfonamide]: 1 to 100 nM.
With `CCOc1cccc(-c2nc3nnc(NS(=O)(=O)Cc4ccc(F)cc4)cc3n2-c2c(OC)cccc2OC)n1` [Example 122, N-(7-(2,6-Dimethoxyphenyl)-8-(6-ethoxypyridin-2-yl)-7H-imidazo[4,5-c]pyridazinyl)-1-(4-fluorophenyl)methanesulfonamide], the EC50 was below 1 nM.
On to `CCOc1cccc(-c2nc3nc(Cl)cnc3n2-c2c(OC)cccc2OC)n1` [Example 15, 5-chloro-1-(2,6-dimethoxyphenyl)-2-(6-ethoxypyridin-2-yl)-1H-imidazo[4,5-b]pyrazine], for which the EC50 is 100 to 10000 nM.
The figure for `CCOc1cccc(-c2nc3nc(Cl)c(NS(=O)(=O)C4CC4)nc3n2-c2c(OC)cncc2OC)n1` [Example 118, N-(5-Chloro-1-(3,5-dimethoxypyridin-4-yl)-2-(6-ethoxypyridin-2-yl)-1H-imidazo[4,5-b]pyrazin-6)cyclopropanesulfonamide] is 1 to 100 nM; for `CCOc1cccc(-c2nc3nc(NCc4ccc(OC)cc4)cnc3n2-c2c(OC)cccc2OC)n1` [Example 46, 1-(2,6-dimethoxyphenyl)-2-(6-ethoxypyridin-2-yl)-N-(4-methoxybenzyl)-1H-imidazo[4,5-b]pyrazin-5-amine] it is below 1 nM.
The same measure for `CCOc1cccc(-c2nc3nc(OC4CC4)c(NS(C)(=O)=O)nc3n2-c2c(OC)cccc2OC)n1` [Example 89, N-(5-Cyclopropoxy-1-(2,6-dimethoxyphenyl)-2-(6-ethoxypyridin-2-yl)-1H-imidazo[4,5-b]pyrazin-6-yl)methanesulfonamide]: 100 to 10000 nM.
The same measure for `CCOc1cccc(-c2nc3ncc(NS(=O)(=O)c4ccccn4)nc3n2-c2c(OC)cccc2OC)n1` [Example 23, N-(1-(2,6-dimethoxyphenyl)-2-(6-ethoxypyridin-2-yl)-1H-imidazo[4,5-b]pyrazin-6-yl)pyridine-2-sulfonamide]: below 1 nM; for `CCOc1cccc(-c2nc3ncc(NS(=O)(=O)CC4CC4)nc3n2-c2c(OC)cccc2OC)n1` [Example 4, 1-cyclopropyl-N-(1-(2,6-dimethoxyphenyl)-2-(6-ethoxypyridin-2-yl)-1H-imidazo[4,5-b]pyrazin-6-yl)methanesulfonamide]: 1 to 100 nM; for `CCOc1cccc(-c2nc3nc(NS(=O)(=O)CCC4CC4)cnc3n2-c2c(OC)cccc2OC)n1` [Example 44]: below 1 nM.
For the molecule `CCOc1cccc(-c2nc3nnc(NS(=O)(=O)Cc4ncc(O)cn4)cc3n2-c2c(OC)cccc2OC)n1` [Example 129, N-(7-(2,6-Dimethoxyphenyl)-8-(6-ethoxypyridin-2-yl)-7H-imidazo[4,5-c]pyridazinyl)-1-(5-hydroxypyrimidin-2-yl)methanesulfonamide], the EC50 was 1 to 100 nM.
